Laboratory results: publication PMC4648050, “Discovery of Inhibitors of Trypanosoma brucei by Phenotypic Screening of a Focused Protein Kinase Library” (Chemmedchem, 2015)

Columns and labels:
Format in all cases: biochemical, human/mammalian
Settings in all cases: compound at 10 μM, read-out: % of activity respect of the control
PKBb = PKBb (Homo sapiens, UniProt P31751); test: Kinase panel: PKBb
Protocol: (§1) The DDU kinase-focused compound set contains lead-like scaffolds that are designed to target protein kinases; they have kinase hinge binding motifs. Four of the 1H-imidazopyrazinones were screened against a human/mammalian kinase panel at the University of Dundee (http://www.kinase-screen.mrc.ac.uk) at a concentration of 10 μM. At the time of testing the panel contained 79 mammalian kinases selected to provide a broad coverage of the mammalian kinome (∼500 kinases in the human genome).[3] None of the compounds were active against any of the kinases at 10 μM.

IGF-1R = IGF-1R (Homo sapiens, UniProt P08069); test: Kinase panel: IGF-1R
IGF-1R, sequence (P08069 31-1367): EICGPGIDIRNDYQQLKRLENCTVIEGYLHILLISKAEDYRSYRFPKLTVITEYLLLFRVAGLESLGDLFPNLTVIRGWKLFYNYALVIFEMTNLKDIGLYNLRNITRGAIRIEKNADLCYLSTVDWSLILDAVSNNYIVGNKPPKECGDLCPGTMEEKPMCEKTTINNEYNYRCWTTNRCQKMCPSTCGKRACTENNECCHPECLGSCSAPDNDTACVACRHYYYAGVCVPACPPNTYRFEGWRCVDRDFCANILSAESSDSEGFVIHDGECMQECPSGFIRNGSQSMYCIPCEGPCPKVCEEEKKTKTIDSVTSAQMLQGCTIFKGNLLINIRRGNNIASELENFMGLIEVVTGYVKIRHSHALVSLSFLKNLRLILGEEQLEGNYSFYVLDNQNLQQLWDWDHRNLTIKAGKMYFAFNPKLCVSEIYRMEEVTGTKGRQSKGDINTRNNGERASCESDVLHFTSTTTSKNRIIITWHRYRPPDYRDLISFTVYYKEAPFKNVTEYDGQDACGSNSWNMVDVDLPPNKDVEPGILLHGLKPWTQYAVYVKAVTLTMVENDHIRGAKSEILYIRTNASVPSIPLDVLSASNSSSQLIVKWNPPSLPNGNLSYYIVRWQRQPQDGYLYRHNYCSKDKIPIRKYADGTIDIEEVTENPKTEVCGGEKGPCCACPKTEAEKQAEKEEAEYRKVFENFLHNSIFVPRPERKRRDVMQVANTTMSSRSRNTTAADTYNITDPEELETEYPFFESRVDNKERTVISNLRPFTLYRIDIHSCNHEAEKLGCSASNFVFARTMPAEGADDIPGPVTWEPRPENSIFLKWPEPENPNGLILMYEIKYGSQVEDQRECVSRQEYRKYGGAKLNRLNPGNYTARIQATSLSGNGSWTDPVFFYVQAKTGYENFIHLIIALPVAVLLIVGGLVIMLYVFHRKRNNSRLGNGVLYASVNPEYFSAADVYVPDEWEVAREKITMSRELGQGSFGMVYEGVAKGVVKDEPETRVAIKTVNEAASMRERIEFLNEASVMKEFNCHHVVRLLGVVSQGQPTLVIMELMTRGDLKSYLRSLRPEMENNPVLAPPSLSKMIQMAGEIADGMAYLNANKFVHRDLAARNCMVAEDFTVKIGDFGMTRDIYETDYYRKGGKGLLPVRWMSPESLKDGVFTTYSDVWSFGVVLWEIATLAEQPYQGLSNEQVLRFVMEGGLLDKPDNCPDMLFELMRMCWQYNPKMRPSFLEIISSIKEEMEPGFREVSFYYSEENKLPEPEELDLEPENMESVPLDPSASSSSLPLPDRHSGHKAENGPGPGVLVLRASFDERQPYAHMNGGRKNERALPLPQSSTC
Protocol: as §1

DYRK3 = biological target: T1, DYRK3 (Homo sapiens, UniProt O43781); test: Kinase panel: DYRK3
T1 sequence (O43781 1-588): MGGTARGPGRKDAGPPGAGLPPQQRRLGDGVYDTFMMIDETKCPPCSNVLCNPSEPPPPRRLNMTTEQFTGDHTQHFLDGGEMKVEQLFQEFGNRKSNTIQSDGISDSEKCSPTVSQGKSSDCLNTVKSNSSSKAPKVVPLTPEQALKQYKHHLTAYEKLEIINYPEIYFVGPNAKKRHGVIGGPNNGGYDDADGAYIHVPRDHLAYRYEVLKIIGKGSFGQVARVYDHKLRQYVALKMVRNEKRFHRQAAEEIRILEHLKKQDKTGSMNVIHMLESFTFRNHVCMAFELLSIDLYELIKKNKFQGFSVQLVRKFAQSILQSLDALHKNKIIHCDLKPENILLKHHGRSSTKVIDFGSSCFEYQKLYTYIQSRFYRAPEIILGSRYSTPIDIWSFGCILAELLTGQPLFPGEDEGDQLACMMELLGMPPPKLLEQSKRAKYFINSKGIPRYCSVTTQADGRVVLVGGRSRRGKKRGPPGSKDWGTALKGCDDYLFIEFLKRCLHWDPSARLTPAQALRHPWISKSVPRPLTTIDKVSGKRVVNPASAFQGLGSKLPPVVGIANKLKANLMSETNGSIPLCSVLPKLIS
Protocol: as §1

IKK epsilon (14231) = biological target: T2, IKK epsilon (14231) (Homo sapiens, UniProt Q14164); test: Kinase panel: IKK epsilon (14231)
T2 sequence (Q14164 1-716): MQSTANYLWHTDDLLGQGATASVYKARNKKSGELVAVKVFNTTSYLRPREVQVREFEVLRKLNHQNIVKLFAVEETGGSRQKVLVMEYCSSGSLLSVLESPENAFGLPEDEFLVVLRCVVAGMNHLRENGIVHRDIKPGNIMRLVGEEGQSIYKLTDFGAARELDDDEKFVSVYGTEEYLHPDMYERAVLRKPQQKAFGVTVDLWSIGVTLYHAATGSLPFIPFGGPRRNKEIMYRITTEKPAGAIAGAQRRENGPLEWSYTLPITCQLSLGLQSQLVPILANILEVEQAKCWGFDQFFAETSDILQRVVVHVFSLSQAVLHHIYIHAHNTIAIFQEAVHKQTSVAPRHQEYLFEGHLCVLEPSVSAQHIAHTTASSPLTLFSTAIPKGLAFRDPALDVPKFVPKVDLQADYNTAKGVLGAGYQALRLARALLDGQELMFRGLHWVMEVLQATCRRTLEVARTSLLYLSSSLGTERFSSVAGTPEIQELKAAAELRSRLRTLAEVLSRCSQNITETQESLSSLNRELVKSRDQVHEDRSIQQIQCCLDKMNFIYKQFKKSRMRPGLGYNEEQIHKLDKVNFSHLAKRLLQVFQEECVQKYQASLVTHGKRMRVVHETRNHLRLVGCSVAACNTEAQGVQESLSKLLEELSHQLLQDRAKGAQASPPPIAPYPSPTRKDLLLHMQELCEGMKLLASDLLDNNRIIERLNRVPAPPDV
Protocol: as §1

IKKb = biological target: T3, IKKb (Homo sapiens, UniProt O14920); test: Kinase panel: IKKb
T3 sequence (O14920 1-756): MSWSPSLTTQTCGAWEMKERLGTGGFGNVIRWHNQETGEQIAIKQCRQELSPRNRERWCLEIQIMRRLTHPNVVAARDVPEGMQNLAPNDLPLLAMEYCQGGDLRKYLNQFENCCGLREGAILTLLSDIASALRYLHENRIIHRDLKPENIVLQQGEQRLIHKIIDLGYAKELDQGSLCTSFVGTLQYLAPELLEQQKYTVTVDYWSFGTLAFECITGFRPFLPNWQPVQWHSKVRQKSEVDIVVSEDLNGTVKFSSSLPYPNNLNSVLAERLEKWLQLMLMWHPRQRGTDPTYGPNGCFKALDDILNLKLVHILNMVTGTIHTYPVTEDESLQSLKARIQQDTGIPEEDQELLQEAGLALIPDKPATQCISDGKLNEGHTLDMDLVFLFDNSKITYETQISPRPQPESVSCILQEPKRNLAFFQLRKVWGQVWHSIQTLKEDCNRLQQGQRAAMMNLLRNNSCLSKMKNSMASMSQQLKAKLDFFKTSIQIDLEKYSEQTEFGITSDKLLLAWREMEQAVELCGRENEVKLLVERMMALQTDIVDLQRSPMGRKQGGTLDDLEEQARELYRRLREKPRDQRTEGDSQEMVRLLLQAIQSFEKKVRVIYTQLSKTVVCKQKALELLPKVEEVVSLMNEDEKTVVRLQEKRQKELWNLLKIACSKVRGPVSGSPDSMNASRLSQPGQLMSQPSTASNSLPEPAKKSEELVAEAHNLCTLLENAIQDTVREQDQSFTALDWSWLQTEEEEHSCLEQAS
Protocol: as §1

PDK1 = biological target: T4, PDK1 (Homo sapiens, UniProt O15530); test: Kinase panel: PDK1
T4 sequence (O15530 1-556): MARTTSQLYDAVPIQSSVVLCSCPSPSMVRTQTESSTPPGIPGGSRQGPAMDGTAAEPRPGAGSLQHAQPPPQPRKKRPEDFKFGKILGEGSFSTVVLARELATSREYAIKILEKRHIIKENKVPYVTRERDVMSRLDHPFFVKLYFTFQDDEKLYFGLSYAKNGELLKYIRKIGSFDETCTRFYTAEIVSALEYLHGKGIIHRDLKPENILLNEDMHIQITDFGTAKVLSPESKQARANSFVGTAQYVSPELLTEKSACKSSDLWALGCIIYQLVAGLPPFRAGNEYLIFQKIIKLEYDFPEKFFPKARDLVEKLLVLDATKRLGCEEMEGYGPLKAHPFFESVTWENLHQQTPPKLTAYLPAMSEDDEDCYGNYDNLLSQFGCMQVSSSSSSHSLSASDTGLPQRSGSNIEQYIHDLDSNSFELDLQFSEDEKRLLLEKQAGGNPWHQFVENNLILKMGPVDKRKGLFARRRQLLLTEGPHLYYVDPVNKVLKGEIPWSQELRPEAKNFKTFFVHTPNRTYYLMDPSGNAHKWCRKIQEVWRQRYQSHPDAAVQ
Protocol: as §1

PKBb, sequence (P31751 whole entry): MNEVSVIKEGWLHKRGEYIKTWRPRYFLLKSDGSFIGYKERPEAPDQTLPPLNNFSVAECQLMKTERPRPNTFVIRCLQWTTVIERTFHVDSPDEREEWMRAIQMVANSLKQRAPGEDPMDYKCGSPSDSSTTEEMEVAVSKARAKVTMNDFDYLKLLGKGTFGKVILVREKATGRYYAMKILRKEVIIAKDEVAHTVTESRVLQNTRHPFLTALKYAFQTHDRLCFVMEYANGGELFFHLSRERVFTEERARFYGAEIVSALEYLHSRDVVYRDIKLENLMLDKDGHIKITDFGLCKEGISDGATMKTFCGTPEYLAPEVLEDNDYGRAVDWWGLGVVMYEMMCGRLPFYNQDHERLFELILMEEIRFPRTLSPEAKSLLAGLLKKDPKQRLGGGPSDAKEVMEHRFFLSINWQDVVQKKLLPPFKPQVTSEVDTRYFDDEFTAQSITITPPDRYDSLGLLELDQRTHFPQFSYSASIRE

| Structure (SMILES) | remaining activity at 10 µM (PKBb) [%] | remaining activity at 10 µM (IGF-1R) [%] | remaining activity at 10 µM (DYRK3) [%] | remaining activity at 10 µM (IKK epsilon (14231)) [%] | remaining activity at 10 µM (IKKb) [%] | remaining activity at 10 µM (PDK1) [%] |
| --- | --- | --- | --- | --- | --- | --- |
| CC(c1ccccc1)n1c(=O)[nH]c2ncc(-c3ccc(F)cc3)nc21 (stereo not drawn) [Compound 1] | 117 | 122 | 109 | 124 | 103 | 99 |
| O=c1[nH]c2ncc(-c3ccc(F)cc3)nc2n1CC1CC1 [Compound 10] | 120 | 85 | 108 | 103 | 105 | 96 |
| O=c1[nH]c2ncc(-c3ccc(F)cc3)nc2n1C1CCCCC1 [Compound 12, 1-Cyclohexyl-6-(4-fluorophenyl)-1H-imidazo[4,5-b]pyrazin-2(3H)-one] | 106 | 100 | 99 | 98 | 94 | 98 |
| C[C@H](c1ccccc1)n1c(=O)[nH]c2ncc(-c3ccccc3)nc21 [Compound 14, (R)-6-Phenyl-1-(1-phenylethyl)-1H-imidazo[4,5-b]pyrazin-2(3H)-one] | 100 | 112 | 100 | 87 | 77 | 91 |
